Data reported in patent publication US11957931B2, “Compositions and methods for treating vitiligo” (YALE UNIVERSITY, priority 2017, dated 2024).
Where two headings read alike, the source gives them in different places. Marks after values point to notes of the source that are not given here.

Experiments:
[1] = tested on: CXCL10; test: CXCL10 ELISA of blister fluid and serum; type: in vivo, human; settings: Patient 1; following treatment
Experimental: (§1) The Negative Pressure Instrument Model NP-4 (Electronic Diversities®, Finksburg, MD) was used to induce suction blisters (1 cm in diameter). Blisters formed at a pressure between […] negative pressure and at a constant temperature of 40° C. Once blisters formed, the blister fluid was aspirated […] through the roof using a 1 mL insulin syringe. Cells in the blister fluid were pelleted at 330×g for 10 minutes and prepared for flow cytometry. The supernatant of the blister fluid was stored at −80° C. until analysis by enzyme-linked immunosorbent-assays (ELISA) for chemokines. None of the blisters were hemorrhagic.
(§2) Chemokines were assayed using the Human CXLC9/MIG DuoSet ELISA (DY392) and Human CXCL10/IP-10 DuoSet ELISA (DY266, R&D Systems) per the manufacturer's instructions. Optical densities were measured using a Perkin Elmer EnVision 2102® multilabel reader and analyzed using a 4 parameter […] standard curve.

[2] = tested on: patients with vitiligo; test: Retrospective case series of vitiligo patients treated with tofacitinib: BSA of depigmentation / repigmentation; type: in vivo, human; design: key to Responder Status: R, responder; NR, non-responder
From the text: (§3) This study is a retrospective case series of 10 patients seen between July 2014 and January 2017. […] Clinical and demographic information, including biological sex, age, disease duration and course, medical history, family history, and prior treatments were collected. Before initiating tofacitinib, all patients underwent baseline laboratory evaluation including comprehensive metabolic panel, complete blood cell count with differential, fasting lipid panel, QuantiFERON-TB Gold® ([…] Limited, Melbourne, Australia), and screening for HIV and hepatitis B and C. Body surface area (BSA) of depigmentation was assessed prior to and at the end of treatment. Serial laboratory monitoring, physical exams, and review of systems were used to monitor for adverse events.

[3] = tested on: patients with vitiligo; test: Adverse event monitoring in the case series (laboratory monitoring, physical exams, review of systems); type: in vivo, human
From the text: as §3

[4] = tested on: patients with vitiligo
[5] = tested on: CD8^+ T cells; test: Suction blister sampling, flow cytometry of CD8+ T cells in blister fluid; type: in vivo, human; settings: Patient 1; after 10 months of tofacitinib vs baseline; responding, non-responding and non-lesional sites
Experimental: The Negative Pressure Instrument Model NP-4 (Electronic Diversities®, Finksburg, MD) was used to induce suction blisters (1 cm in diameter). Blisters formed at a pressure between 10-15 mm Hg negative pressure and at a constant temperature of 40° C. Once blisters formed, the blister fluid was aspirated 135 through the roof using a 1 mL insulin syringe. Cells in the blister fluid were pelleted at 330×g for 10 minutes and prepared for flow cytometry. […] Cells were blocked with Human TruStain and incubated with an antibody cocktail for 30 minutes at 4° C. Anti-human CD45 (2D1) and CD8 (SK1) were used at 1:20 dilution. Anti-human CD3 (OKT3) was used at 1:200 dilution (BioLegend) and Fixable Viability Dye eFluor 455UV at 1:1000 (Ebioscience).

[6] = tested on: melanocyte-specific T cells (HLA pentamer positive); settings: Patient 1; after treatment vs baseline
Experimental: Cells were blocked with Human TruStain and incubated with an antibody cocktail for 30 minutes at 4° C. Anti-human CD45 (2D1) and CD8 (SK1) were used at 1:20 dilution. Anti-human CD3 (OKT3) was used at 1:200 dilution (BioLegend) and Fixable Viability Dye eFluor 455UV at 1:1000 (Ebioscience).

[7] = tested on: CXCL9; test: CXCL9 ELISA of blister fluid and serum; type: in vivo, human; settings: Patient 1; following treatment
Experimental: as §1, §2

[8] = Patient 1, earlier course, 5 mg daily, over 5 months
[9] = Patient 2, 5 mg twice daily, after 8 months
[10] = Patient 3, 5 mg twice daily plus nbUVB 150 mJ every other day, after 11 months
[11] = Patient 4, after 14 months of therapy
[12] = Case 1, 5 mg twice daily plus full-body narrowband UV-B (400-500 mJ) twice weekly, after 3 months
[13] = Cases 1 and 2, at last follow-up

With `C[C@@H]1CCN(C(=O)CC#N)C[C@@H]1N(C)c1ncnc2[nH]ccc12` [tofacitinib, 3-((3R,4R)-4-methyl-3-(methyl(7H-pyrrolo[2,3-d]pyrimidin-4-yl)amino)piperidin-1-yl)-3-oxopropanenitrile] the “CXCL10 level in blister fluid” value [1] was “undetectable”, the “CXCL10 level in serum” value [1] was “undetectable” and the “Responder Status” value ([2]; Patient 1) was “R”. The “repigmentation at other body sites, including the trunk” value [2, 8] was “only minimal repigmentation”, the “repigmentation of face, forearms and dorsal hands” value [2, 8] was “near complete repigmentation” and the repigmentation on re-treatment ([2]; Patient 1, 5 mg daily over 6 months, started in late spring) was “repigmentation of the face, forearms and dorsal hands, and the upper back and shoulders, but not the lower back or other sun-protected body sites”. The “BSA after to tofacitinib” value ([2]; Patient 1, BSA prior to tofacitinib 10%, treatment duration 10 months) was 4%, the “course after stopping tofacitinib” value ([2]; Patient 1, tofacitinib stopped for 8 months, areas that had previously responded) was “depigmentation recurred” and the “Responder Status” value ([2]; Patient 2) was “R”. For the same compound, the “repigmentation of dorsal hands and lower legs” value [2, 9] was “islands of repigmentation”, the “repigmentation of face, neck (not submental area) and forearms” value [2, 9] was “near-complete repigmentation” and the sun-protected body sites [2, 9] was “remained unchanged”. For the same compound, the “repigmentation of face, lateral and posterior neck, and forearms” value ([2]; Patient 2, 5 mg twice daily, over 3 months, sun exposure) was “partial repigmentation”, the “BSA after to tofacitinib” value ([2]; Patient 2, BSA prior to tofacitinib 28%, treatment duration 8 months) was 24% and the maintenance of repigmentation ([2]; Patient 2, while taking tofacitinib during the winter, minimal sunlight exposure) was “Repigmentation was maintained”. For the same compound, the “Responder Status” value ([2]; Patient 3) was “R”, the “repigmentation of all other body sites” value [2, 10] was “innumerable islands of repigmentation” and the “repigmentation of the back” value [2, 10] was over 75%. The “repigmentation of the face” value [2, 10] was “complete repigmentation”, the “BSA after to tofacitinib” value ([2]; Patient 3, BSA prior to tofacitinib 39%, treatment duration 11 months, concomitant nbUVB) was 24% and the “Responder Status” value ([2]; Patient 4) was “R”. For the same compound, the “BSA after to tofacitinib” value ([2]; Patient 4, BSA prior to tofacitinib 10%, treatment duration 14 months) was 8%, the “repigmentation of hands and sun-protected body sites” value [2, 11] was “neither the hands nor sun-protected body sites, however, showed evidence of repigmentation” and the “repigmentation of the face” value [2, 11] was “near-complete repigmentation”. The “Responder Status” value ([2]; Patient 5) was “R”, the “response of vitiligo to tofacitinib alone” value ([2]; Patient 5, 5-10 mg twice daily for 1 year, before nbUVB, hands disguised with makeup) was “unresponsive” and the “BSA after to tofacitinib” value ([2]; Patient 5, BSA prior to tofacitinib 2%, treatment duration 10 months, islands of repigmentation after 12 nbUVB treatments did not change BSA appreciably) was 2%*. The “repigmentation after adding nbUVB hand phototherapy” value ([2]; Patient 5, concomitant nbUVB, approximately 12 treatments (most recent dose 350 mJ)) was “islands of repigmentation were apparent”, the “Responder Status” value ([2]; Patient 6) was “NR” and the “BSA after to tofacitinib” value ([2]; Patient 6, BSA prior to tofacitinib 7%, treatment duration 3 months) was 7%. For the same compound, the “Responder Status” value ([2]; Patient 7) was “NR”, the “BSA after to tofacitinib” value ([2]; Patient 7, BSA prior to tofacitinib 1%, treatment duration 9 months) was 1% and the “Responder Status” value ([2]; Patient 8) was “NR”. For the same compound, the “BSA after to tofacitinib” value ([2]; Patient 8, BSA prior to tofacitinib 4%, treatment duration 15 months) was 4%, the “Responder Status” value ([2]; Patient 9) was “NR” and the “BSA after to tofacitinib” value ([2]; Patient 9, BSA prior to tofacitinib 6%, treatment duration 4 months) was 6%. The “Responder Status” value ([2]; Patient 10) was “NR”, the “BSA after to tofacitinib” value ([2]; Patient 10, BSA prior to tofacitinib 100%, treatment duration 11 months) was 100% and the “mean decrease of BSA involvement with vitiligo” value ([2]; in 5/10 patients, tofacitinib 5-10 mg QD-BID, average 9.5 months) was 5.4 % BSA. The “overall finding: repigmentation and light exposure” value ([2]; sunlight or nbUVB phototherapy) was “only led to repigmentation when there was concomitant light exposure”, the repigmentation ([2]; the other 5 of 10 patients, tofacitinib 5-10 mg QD-BID) was “did not achieve any repigmentation” and the serious adverse events ([3]; 10 patients) was “no serious adverse events”. For the same compound, the adverse events overall ([3]; in vivo) was “mild and infrequent”, the arthralgias ([3]; of 10 patients) was “one patient reported arthralgias” and the “mild elevations of lipids” value ([3]; of 10 patients) was 4 patients. The “upper respiratory infection (most common side effect)” value ([3]; of 10 patients) was 2 patients, the weight gain ([3]; reported by one patient of 10) was 5 pounds and the “repigmentation of neck, chest, forearms and shins” value [4, 12] was at least 75%. The “repigmentation of the dorsal hands” value [4, 12] was “only minimal freckling”, the “repigmentation of the face” value [4, 12] was “nearly complete repigmentation” and the “repigmentation of the face” value ([4]; Case 2, 5 mg twice daily plus narrowband UV-B (360-500 mJ) 2 to 3 times weekly to only the face, after 3 months) was “about 50%”. The facial repigmentation ([4]; Case 2, 5 mg twice daily plus narrowband UV-B (360-500 mJ) 2 to 3 times weekly to only the face, after 6 months) was “about 75%”, the “repigmentation at the other body sites (no UV-B)” value ([4]; Case 2, 5 mg twice daily, narrowband UV-B to only the face) was “No repigmentation occurred” and the adverse effects [4, 13] was “no adverse effects”. For the same compound, the “complete blood cell count, liver function tests, serum creatinine, fasting lipids” value [4, 13] was “no abnormalities”, the “CD8+ T cell number in blister fluid” value [5] was “absolute numbers in each site were reduced” and the “percentage of melanocyte-specific T cells (HLA pentamer positive) in PBMCs” value [6] was “did not change with tofacitinib treatment, and even increased slightly”. For the same compound, the “CXCL9 level in blister fluid” value [7] was “undetectable” and the “CXCL9 level in serum” value [7] was “undetectable”.
